According to patent EP4737450A1 (Longwood Pharmaceuticals (Hangzhou) Co., Ltd, priority 2023, dated 2025):
Like-named read-outs stand apart in the source and are kept apart here.

Tests used:
plasma kallikrein (PKa) = molecular target: T1, plasma kallikrein (PKa) (Homo sapiens, UniProt P03952); assay: Inhibitory activity against plasma kallikrein in vitro (fluorescence intensity enzyme assay, Pro-Phe-Arg-AMC substrate); assay type: biochemical; settings: Pro-Phe-Arg-AMC substrate
T1 construct: purchased R & D 2497-SE
How it was run: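 Fluorescence intensity enzyme assay with 10 nM enzyme and 60 µM Pro-Phe-Arg-AMC (final concentrations). Compounds in DMSO, tested in duplicate over a dose series. IC50 from nonlinear regression curve fitting.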

KLK1 = KLK1 (Homo sapiens, UniProt P06870); assay: Inhibitory activity against KLK1 in vitro (biochemical assay)
From the text: Test Example 1. Test of the inhibitory activities of the compounds of the present invention against plasma kallikrein (PKa), KLK1 and FXIa in vitro. […]

FXIa = FXIa (Homo sapiens, UniProt P03951); assay: Inhibitory activity against FXIa in vitro (biochemical assay)
Protocol: Test Example 1. Test of the inhibitory activities of the compounds of the present invention against plasma kallikrein (PKa), KLK1 and FXIa in vitro.
PKK (R & D, Cat # 2497-SE) and Pro-Phe-Arg-AMC (Nanjing Peptide, Cat # NJP23946) solutions were prepared in reaction buffer (50 mM Tris-HCl, pH 7.5, 250 mM NaCl). The final concentrations of enzyme protein and Pro-Phe-Arg-AMC in the reaction mixture were 10 nM and 60 µM, respectively. The starting concentration of the positive reference substance Avoralstat was 100 nM, 3-fold dilution, 10 + 0 dose. 0.05 µL of compound in 100% DMSO was delivered to a 384-well plate by an acoustic liquid delivery technique (Echo665; nanoliter range). Compound duplex test. 5 µL of 2 × enzyme solution was transferred to a 384 reaction plate and centrifuged at 1000 rpm for 1 minute, incubated at 25°C for 15 minutes; 5 µL of 2 × Pro-Phe-Arg-AMC solution was transferred to a 384 reaction plate, centrifuged at 1000 rpm for 1 minute, incubated at 25°C for 3 hours. […] IC50 values and nonlinear regression curve fitting were obtained using GraphPad Prism software.

[1] = plasma kallikrein enzyme assay, read-out: PKa IC50

Sequence of FXIa (P03951 388-625 limits assumed): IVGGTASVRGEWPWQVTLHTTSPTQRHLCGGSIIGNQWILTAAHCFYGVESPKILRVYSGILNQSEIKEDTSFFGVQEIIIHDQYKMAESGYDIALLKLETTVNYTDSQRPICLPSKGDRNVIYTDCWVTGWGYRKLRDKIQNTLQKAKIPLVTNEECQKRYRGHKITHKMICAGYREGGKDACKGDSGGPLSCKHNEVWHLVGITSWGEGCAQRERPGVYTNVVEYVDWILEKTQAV
Sequence of FXIa (P03951 19-387 partner limits assumed): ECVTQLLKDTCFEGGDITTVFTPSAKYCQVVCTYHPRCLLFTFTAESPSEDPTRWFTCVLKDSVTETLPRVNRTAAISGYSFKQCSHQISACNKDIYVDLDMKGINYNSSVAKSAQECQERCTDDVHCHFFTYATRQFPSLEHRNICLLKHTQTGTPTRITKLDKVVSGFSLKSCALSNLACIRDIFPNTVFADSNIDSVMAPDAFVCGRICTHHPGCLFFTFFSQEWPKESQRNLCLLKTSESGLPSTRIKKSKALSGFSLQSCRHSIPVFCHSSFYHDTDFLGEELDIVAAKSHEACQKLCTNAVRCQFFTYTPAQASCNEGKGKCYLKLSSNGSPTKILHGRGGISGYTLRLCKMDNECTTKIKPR
Sequence of KLK1 (P06870 25-262, species assumed): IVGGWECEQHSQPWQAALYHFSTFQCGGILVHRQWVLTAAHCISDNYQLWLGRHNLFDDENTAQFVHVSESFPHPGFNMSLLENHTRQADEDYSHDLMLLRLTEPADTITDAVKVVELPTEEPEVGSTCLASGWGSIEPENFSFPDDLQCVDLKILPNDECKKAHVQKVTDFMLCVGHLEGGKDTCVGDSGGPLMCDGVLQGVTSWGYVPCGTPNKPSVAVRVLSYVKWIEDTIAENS
T1 sequence (P03952 391-638 limits assumed): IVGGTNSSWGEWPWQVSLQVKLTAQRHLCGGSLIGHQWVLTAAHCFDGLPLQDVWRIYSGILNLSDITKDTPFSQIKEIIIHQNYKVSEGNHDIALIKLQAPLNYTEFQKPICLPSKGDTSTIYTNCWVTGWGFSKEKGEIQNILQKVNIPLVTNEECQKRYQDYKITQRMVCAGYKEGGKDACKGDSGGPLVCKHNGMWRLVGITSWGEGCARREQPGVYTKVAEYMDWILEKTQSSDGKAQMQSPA
T1 sequence (P03952 20-390 partner limits assumed): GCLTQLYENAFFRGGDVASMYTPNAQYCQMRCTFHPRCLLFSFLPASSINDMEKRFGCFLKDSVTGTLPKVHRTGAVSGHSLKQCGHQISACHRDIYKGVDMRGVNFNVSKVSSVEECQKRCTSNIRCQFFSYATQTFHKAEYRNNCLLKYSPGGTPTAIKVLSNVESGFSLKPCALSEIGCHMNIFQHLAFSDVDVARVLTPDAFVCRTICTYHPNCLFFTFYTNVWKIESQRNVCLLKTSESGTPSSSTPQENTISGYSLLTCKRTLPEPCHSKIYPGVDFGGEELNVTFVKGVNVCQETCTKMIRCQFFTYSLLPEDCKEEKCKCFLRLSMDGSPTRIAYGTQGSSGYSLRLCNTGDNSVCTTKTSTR

Row | SMILES | IC50 (plasma kallikrein (PKa); [1]) | IC50 (KLK1; values given in µM) | IC50 (FXIa; values given in µM) | IC50 (plasma kallikrein (PKa); PKa IC50, plasma kallikrein enzyme assay) | IC50 (KLK1; values in nM) | IC50 (FXIa; values in nM)
1 | N=C(N)c1ccc(CNC(=O)c2cnn(Cc3ccc(N4CCC(F)(F)CC4)c(C(F)(F)F)c3)c2)cc1 [Compound 387] | 0.08 nM | > 10 µM | > 10 µM |  |  | 
2 | Cc1cc(N)nc(C)c1CNC(=O)c1nsc(Cc2ccc(Cn3ccccc3=O)cc2)n1 [Compound 67] | 0.29 nM | > 10 µM | > 10 µM |  |  | 
3 | Cc1nc(N)c(C)c(C)c1CNC(=O)c1cnn(Cc2ccc(Cn3ccccc3=O)cc2)c1 [Compound 256] | 0.44 nM | > 10 µM | > 10 µM |  |  | 
4 | N=C(N)c1ccc(CNC(=O)c2cnn(Cc3ccc(OCC4CC4)c(C(F)(F)F)c3)c2)cc1 [Compound 385] | 0.88 nM | > 10 µM | > 10 µM |  |  | 
5 | COc1ccnc(CNC(=O)c2cn(Cc3ccc(Cn4ccccc4=O)cc3)nc2N2CC(C)(O)C2)c1F [Compound 296] |  | > 10 µM | > 10 µM | 2.22 nM |  | 
6 | COCc1nn(Cc2ccc(CC3CC3)cc2)cc1C(=O)NCc1ccc(C(=N)N)cc1 [Compound 121] | 0.48 nM | > 10 µM | > 10 µM |  |  | 
7 | Cc1cc2nccn2c(C)c1CNC(=O)c1cnn(Cc2ccc(Cn3ccccc3=O)cc2)c1 [Compound 94] | 0.53 nM | > 10 µM | > 10 µM |  |  | 
8 | N=C(N)c1ccc(CNC(=O)c2cnn(Cc3ccc(CC4CC4)c(F)c3)c2)cc1 [Compound 262] | 2.67 nM | > 10 µM | > 10 µM |  |  | 
9 | Cn1ccc2cnc(CNC(=O)c3cn(Cc4ccc(Cn5ccccc5=O)cc4)nc3C(F)(F)F)c(F)c21 [Compound 378] | 1.41 nM | > 10 µM | > 10 µM |  |  | 
10 | COc1ccnc(CNC(=O)c2cn(Cc3ccc(Cn4ccccc4=O)cc3)nc2C2C(C)(C)C2(F)F)c1F (stereo not drawn) [Compound 263] | 0.59 nM | > 10 µM | > 10 µM |  |  | 
11 | N=C(N)c1ccc(CNC(=O)c2cnn(Cc3cc(F)c(C(=O)C4CC4)c(F)c3)c2)cc1 [Compound 394] | 1.56 nM | > 10 µM | > 10 µM |  |  | 
12 | N#Cc1cc(N2CC3C(C2)C3(F)F)ccc1Cn1cnc(C(=O)NCc2ccc3c(N)nccc3c2)n1 (stereo not drawn) [Compound 43] | 0.92 nM | > 10 µM | > 10 µM |  |  | 
13 | COCc1nn(Cc2ccc3ncc(Cl)cc3c2)cc1C(=O)NCc1c(C)cc(N)nc1C [Compound 5, N-((6-amino-2,4-dimethylpyridin-3-yl)methyl)-1-((3-chloroquinolin-6-yl)methyl)-3-(methoxymethyl)-1H-pyrazole-4-carboxamide] | 0.6 nM |  |  |  | < 0.5 µM | < 0.5 µM
14 | N#Cc1cc(N2CC3C(C2)C3(F)F)ccc1Cn1cnc(C(=O)NC2CCc3cc(N)ncc32)n1 (single isomer, unassigned) [Compound 54] | 0.46 nM | > 10 µM | > 10 µM |  |  | 
15 | Cc1cc(N)nc(C)c1CNC(=O)c1cc(Cc2ccc(Cn3ccccc3=O)cc2)cn1C [Compound 62] | 0.12 nM | > 10 µM | > 10 µM |  |  | 
16 | COCc1nn(Cc2c(F)c(F)c(Cn3cc(F)ccc3=O)c(F)c2F)cc1C(=O)NCc1c(C)cc(N)nc1C [Compound 49] | 2.78 nM | > 10 µM | > 10 µM |  |  | 
17 | Cc1cc(N)nc(C)c1CNC(=O)c1cn(Cc2cn3cc(C4CC4)ccc3n2)nn1 [Compound 6, N-((6-amino-2,4-dimethylpyridin-3-yl)methyl)-1-(6-cyclopropylimidazo[1,2-a]pyridin-2-yl)methyl-1H-1,2,3-triazole-4-carboxamide] | 0.032 nM |  |  |  | < 0.5 µM | < 0.5 µM
18 | COCc1nn(Cc2ccc(Cn3ccccc3=O)cc2)cc1C(=O)NCc1c(C)cc2nccn2c1C [Compound 143] | 0.65 nM | > 10 µM | > 10 µM |  |  | 
19 | COCc1nn(Cc2ccc(Cn3ccccc3=O)cc2)cc1C(=O)NCc1ncc2cc[nH]c2c1F [Compound 364] | 2.06 nM | > 10 µM | > 10 µM |  |  | 
20 | Cc1cc(N)nc(C)c1CNC(=O)c1ccn(Cc2ccc(Cn3ccccc3=O)cc2)c1 [Compound 61] | 0.12 nM | > 10 µM | > 10 µM |  |  | 
21 | Cc1cc(N)nc(C)c1CNC(=O)c1cn(Cc2ccc(Cn3ccccc3=O)cc2)nc1C(F)(F)F [Compound 116] | 0.07 nM | > 10 µM | > 10 µM |  |  | 
